Laboratory results taken from ChEMBL document CHEMBL1201862, “PubChem BioAssay data set” (2004).
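Compound exposure: 48 hours, 5 concentrations, 96-well plates. GI50 = concentration required for 50% inhibition of growth.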 Activity calls are given as the source filed them. Rule as the data show it: active = GI50 up to about 1.1 µM and inactive = higher.

Key:
Assay in all cases: NCI tumour cell line growth inhibition, 48 h
A549 = system: A549
BT-549 = system: BT-549
EKVX = system: EKVX
HCT-15 = system: HCT-15
HOP-92 = system: HOP-92
Hs-578T = system: Hs-578T
KM12 = system: KM12
LOX IMVI = system: LOX IMVI
MDA-MB-231 = system: MDA-MB-231
MDA-MB-435 = system: MDA-MB-435
NCI-H23 = system: NCI-H23
NCI-H522 = system: NCI-H522
NCI/ADR-RES = system: NCI/ADR-RES
OVCAR-8 = system: OVCAR-8
RPMI-8226 = system: RPMI-8226
SF-268 = system: SF-268
SK-OV-3 = system: SK-OV-3
SR = system: SR
UO-31 = system: UO-31
RXF 393 = system: RXF 393

| Structure (SMILES) | GI50 (A549) | GI50 (BT-549) | GI50 (EKVX) | GI50 (HCT-15) [µM] | GI50 (HOP-92) | GI50 (Hs-578T) | GI50 (KM12) | GI50 (LOX IMVI) | GI50 (MDA-MB-231) | GI50 (MDA-MB-435) | GI50 (NCI-H23) | GI50 (NCI-H522) | GI50 (NCI/ADR-RES) | GI50 (OVCAR-8) | GI50 (RPMI-8226) | GI50 (SF-268) | GI50 (SK-OV-3) | GI50 (SR) | GI50 (UO-31) | GI50 (RXF 393) |
| --- | --- | --- | --- | --- | --- | --- | --- | --- | --- | --- | --- | --- | --- | --- | --- | --- | --- | --- | --- | --- |
| COc1ccc(C2=C(N)c3ccccc3C2=O)cc1 | > 100 µM (inactive) | 48.6 µM (inactive) | > 100 µM (inactive) | > 100 | 27.9 µM (inactive) | 27.5 µM (inactive) | > 100 µM (inactive) | > 100 µM (inactive) | 32.5 µM (inactive) | > 100 µM (inactive) | 39.5 µM (inactive) | 69 µM (inactive) | 42.4 µM (inactive) | 37.8 µM (inactive) | > 100 µM (inactive) | 33.7 µM (inactive) | 43 µM (inactive) | > 100 µM (inactive) | – | – |
| COc1ccc2cc1Oc1ccc(cc1)CC1c3c(cc(OC)c4c3Oc3cc5c(cc3O4)CCNC5C2)CCN1C (centres undefined) | 2.2 µM (inactive) | 2.77 µM (inactive) | 1.94 µM (inactive) | 1.77 | 2.45 µM (inactive) | 2.19 µM (inactive) | 1.85 µM (inactive) | 1.69 µM (inactive) | – | 1.8 µM (inactive) | 2.06 µM (inactive) | 1.7 µM (inactive) | 1.92 µM (inactive) | 1.77 µM (inactive) | 1.63 µM (inactive) | 1.95 µM (inactive) | 4.67 µM (inactive) | 0.698 µM (active) | 15.6 µM (inactive) | – |
| CC(C)CCCC(C)[C@H]1CC[C@H]2[C@@H]3CC[C@H]4C[C@@H](CCC=C(c5cc(Cl)c(O)c(C(=O)OC(C)C)c5)c5cc(Cl)c(O)c(C(=O)OC(C)C)c5)CC[C@]4(C)[C@H]3CC[C@]12C (some centres undefined) | > 50 µM (inactive) | > 50 µM (inactive) | > 50 µM (inactive) | > 50 | > 50 µM (inactive) | > 50 µM (inactive) | > 50 µM (inactive) | > 50 µM (inactive) | > 50 µM (inactive) | > 50 µM (inactive) | > 50 µM (inactive) | – | > 50 µM (inactive) | > 50 µM (inactive) | > 50 µM (inactive) | > 50 µM (inactive) | > 50 µM (inactive) | – | – | > 50 µM (inactive) |
| c1ccc2c(c1)nc1n2CNC1 | > 100 µM (inactive) | > 100 µM (inactive) | > 100 µM (inactive) | > 100 | > 100 µM (inactive) | > 100 µM (inactive) | > 100 µM (inactive) | > 100 µM (inactive) | > 100 µM (inactive) | > 100 µM (inactive) | > 100 µM (inactive) | – | > 100 µM (inactive) | – | > 100 µM (inactive) | > 100 µM (inactive) | > 100 µM (inactive) | > 100 µM (inactive) | > 100 µM (inactive) | > 100 µM (inactive) |
| O=C(C1OC1c1ccc(Cl)cc1)C12CC3CC(CC(C3)C1)C2 (centres undefined) | 21.8 µM (inactive) | 19.9 µM (inactive) | 23.1 µM (inactive) | 20.1 | 16.9 µM (inactive) | 28.4 µM (inactive) | 18.8 µM (inactive) | 4.02 µM (inactive) | 23.6 µM (inactive) | 14.3 µM (inactive) | 14.4 µM (inactive) | 20.9 µM (inactive) | 22.9 µM (inactive) | 16.5 µM (inactive) | – | 20.8 µM (inactive) | 31 µM (inactive) | – | 20.4 µM (inactive) | 21.8 µM (inactive) |
| O=C(N/S(=N/S(=O)(=O)c1ccc(Br)cc1)C(Cl)(Cl)Cl)c1ccccc1 (centres undefined) | > 100 µM (inactive) | > 100 µM (inactive) | > 100 µM (inactive) | > 100 | 26.2 µM (inactive) | > 100 µM (inactive) | > 100 µM (inactive) | > 100 µM (inactive) | > 100 µM (inactive) | > 100 µM (inactive) | > 100 µM (inactive) | – | > 100 µM (inactive) | > 100 µM (inactive) | > 100 µM (inactive) | > 100 µM (inactive) | > 100 µM (inactive) | 70 µM (inactive) | > 100 µM (inactive) | > 100 µM (inactive) |
| CCOP(=O)(OCC)C(C#N)Cc1ccco1 (centres undefined) | > 10 µM (inactive) | > 10 µM (inactive) | > 10 µM (inactive) | > 10 | > 10 µM (inactive) | > 10 µM (inactive) | > 10 µM (inactive) | > 10 µM (inactive) | > 10 µM (inactive) | > 10 µM (inactive) | > 10 µM (inactive) | – | > 10 µM (inactive) | > 10 µM (inactive) | > 10 µM (inactive) | > 10 µM (inactive) | > 10 µM (inactive) | > 10 µM (inactive) | > 10 µM (inactive) | > 10 µM (inactive) |
| N#CCCC1(CCC#N)S(=O)(=O)OCCOS1(=O)=O | 48.1 µM (inactive) | 6.04 µM (inactive) | > 100 µM (inactive) | 36.8 | – | 18.2 µM (inactive) | 32 µM (inactive) | 18.3 µM (inactive) | – | 47.6 µM (inactive) | 36.1 µM (inactive) | 27.1 µM (inactive) | 19.2 µM (inactive) | 89.1 µM (inactive) | 37 µM (inactive) | 32.9 µM (inactive) | 51.3 µM (inactive) | 29.6 µM (inactive) | 50.5 µM (inactive) | 37.1 µM (inactive) |
| CCCCCCCCNC(=O)C1=C(C)NC(C)=C(C(=O)NCCCCCCCC)C1 | > 100 µM (inactive) | > 100 µM (inactive) | > 100 µM (inactive) | > 100 | > 100 µM (inactive) | > 100 µM (inactive) | > 100 µM (inactive) | > 100 µM (inactive) | 69.3 µM (inactive) | 44.8 µM (inactive) | > 100 µM (inactive) | > 100 µM (inactive) | > 100 µM (inactive) | > 100 µM (inactive) | 71 µM (inactive) | > 100 µM (inactive) | > 100 µM (inactive) | – | 77.6 µM (inactive) | > 100 µM (inactive) |
| O=C(O)c1c[nH]c2c(Sc3ccccc3)nccc2c1=O | > 100 µM (inactive) | 33 µM (inactive) | 70.3 µM (inactive) | > 100 | > 100 µM (inactive) | > 100 µM (inactive) | 39.9 µM (inactive) | 44.2 µM (inactive) | > 100 µM (inactive) | > 100 µM (inactive) | > 100 µM (inactive) | 76.7 µM (inactive) | > 100 µM (inactive) | > 100 µM (inactive) | – | > 100 µM (inactive) | > 100 µM (inactive) | – | > 100 µM (inactive) | – |
| COc1cc(OC)cc(-n2c(N)c(C#N)c3ccc([N+](=O)[O-])cc3c2=O)c1 | 43.4 µM (inactive) | 31.2 µM (inactive) | – | > 100 | 19.1 µM (inactive) | 24.2 µM (inactive) | > 100 µM (inactive) | > 100 µM (inactive) | 37.5 µM (inactive) | 63.2 µM (inactive) | 36.4 µM (inactive) | – | 41.8 µM (inactive) | 18.7 µM (inactive) | 85.7 µM (inactive) | 32.4 µM (inactive) | – | 14.2 µM (inactive) | 19.5 µM (inactive) | – |
| CN(C)CCNC(=O)c1cccc2c(NC(CS)C(=O)O)c3ccccc3[n+](C)c12 (centres undefined) | 62.1 µM (inactive) | 35.6 µM (inactive) | 56.9 µM (inactive) | > 100 | – | > 100 µM (inactive) | > 100 µM (inactive) | 32.8 µM (inactive) | 41.4 µM (inactive) | 68.5 µM (inactive) | 89.5 µM (inactive) | – | 33.8 µM (inactive) | 56.8 µM (inactive) | > 100 µM (inactive) | 23.6 µM (inactive) | > 100 µM (inactive) | 22.7 µM (inactive) | 71.8 µM (inactive) | – |
| CCOP(=O)(OCC)C(F)(F)Cc1cnc(C)c2c1COC(C)(C)O2 | > 10 µM (inactive) | > 10 µM (inactive) | > 10 µM (inactive) | > 10 | > 10 µM (inactive) | > 10 µM (inactive) | > 10 µM (inactive) | – | > 10 µM (inactive) | > 10 µM (inactive) | > 10 µM (inactive) | – | > 10 µM (inactive) | > 10 µM (inactive) | > 10 µM (inactive) | > 10 µM (inactive) | > 10 µM (inactive) | > 10 µM (inactive) | > 10 µM (inactive) | > 10 µM (inactive) |
| CC(=O)N1C(C(=O)NC2CCCCC2)CSC1c1ccccc1 (centres undefined) | > 100 µM (inactive) | > 100 µM (inactive) | > 100 µM (inactive) | > 100 | 68.2 µM (inactive) | > 100 µM (inactive) | > 100 µM (inactive) | > 100 µM (inactive) | – | > 100 µM (inactive) | > 100 µM (inactive) | > 100 µM (inactive) | > 100 µM (inactive) | > 100 µM (inactive) | > 100 µM (inactive) | > 100 µM (inactive) | > 100 µM (inactive) | > 100 µM (inactive) | > 100 µM (inactive) | – |
| Cc1nc2ccc(Br)cc2c(=O)n1-c1ccc(N)cc1 | > 100 µM (inactive) | 99.5 µM (inactive) | > 100 µM (inactive) | > 100 | > 100 µM (inactive) | > 100 µM (inactive) | > 100 µM (inactive) | > 100 µM (inactive) | > 100 µM (inactive) | > 100 µM (inactive) | – | – | > 100 µM (inactive) | > 100 µM (inactive) | – | > 100 µM (inactive) | > 100 µM (inactive) | > 100 µM (inactive) | 84.5 µM (inactive) | 28.1 µM (inactive) |
| C=C(C)C12OC1[C@@]1(C)C(=CC2=O)CCC(O)[C@@H]1C (some centres undefined) | 1.42 µM (inactive) | 4.19 µM (inactive) | 1.94 µM (inactive) | 1.92 | 16.7 µM (inactive) | 1.75 µM (inactive) | 2.44 µM (inactive) | 2.67 µM (inactive) | 1.52 µM (inactive) | 3.29 µM (inactive) | 2.26 µM (inactive) | 0.782 µM (active) | – | 1.45 µM (inactive) | 2.43 µM (inactive) | 2.14 µM (inactive) | – | 1.84 µM (inactive) | 1.49 µM (inactive) | – |
